Assay results reported in patent US12275734B1, “Pleuromutilin onium salt derivative containing a 3H-imidazo[4,5-c]pyridine side chain, and a preparation method and application thereof” (SHAANXI UNIVERSITY OF SCIENCE AND TECHNOLOGY, priority 2024, dated 2025).
In brackets after ≈: the same amount, converted by molar mass.

Columns and labels:
[1] = tested on: C. pneumoniae CWL-029, VR-1310; test: Anti-mycoplasma MIC; format: cell-based; settings: Chlamydia pneumoniae, read-out: Antimycoplasma activity (MIC) CP-CWL-029^h
Method: The antimycoplasma activity was quantified using the […]. Retapamulin was used as a positive control to test the minimum inhibitory concentration of 3H-imidazo[4,5-C]pyridine pleuromutilin onium salt derivatives.
(1) Preparation of KM2 medium: Weigh 38.9 g of KM2 medium, add it to 800 mL of distilled water, boil to dissolve, sterilize under high pressure at 115° C. for 20 min, and set aside.
(2) Preparation of bacterial stock solution: Take 0.5 mL of Mhp-J^a, Mhp-LH^b, Mhr-BTS-7^c, MG-R^d, MS-WVU1853^e, MP-M129^f, CP-AR-39^g, CP-CWL-029^h, CP-TW-183^i, MH-PG-21^j, MG-G37^k cultured to the logarithmic phase and transfer it to 4.5 mL of KM2 liquid culture medium. When the culture medium turns yellow, divide each bacterium into 0.5 mL per tube and store it at −70° C. as bacterial stock solution.
(3) Determination of bacterial titer (color change unit, CCU): Take out the bacterial stock solution stored at −70° C., melt and balance to room temperature, add 0.18 mL KM2 medium to each well of the middle 4 rows of the 96-well plate (i.e. 4 parallels), take 0.02 mL and add it to the first column, dilute 10 times to 10^−11, and set up a negative control containing only KM2 medium (12th column). After sealing, put it in a 37° C. incubator and observe the results every day. The highest dilution at which the color of the medium changes is the CCU/mL of the strain.
Take an appropriate amount of seed bacterial solution and dilute it to 10^4 CCU/mL in turn according to its titer. Add drugs of each dilution in a 96-well plate in turn, and then add an equal amount of diluted bacterial solution. Set 200 μL of diluted mycoplasma bacterial solution as a positive control, 200 μL of KM2 liquid culture medium as a negative control, and set a solvent control group (10 μL of drug solvent+190 μL of mycoplasma bacterial solution). Each experiment is set up in 3 parallels. After all culture plates are sealed, they are cultured at 37° C., observed daily, and the final MIC value is recorded.

MRSA (ATCC 33591) [2] = test: Intracellular and extracellular ATP concentration; format: cell-based, S. aureus
Method: The intracellular and extracellular ATP levels refer to the concentration of ATP inside and outside the cell. Under normal physiological conditions, ATP is mainly produced inside the cell and released outside the cell when needed. This dynamic change is very important for maintaining normal biological homeostasis.
Determine the intracellular ATP concentration using the ATP assay kit:
Secondly, the bacterial suspension was treated with different concentrations of compound i, and a blank control group was set up. Next, the samples were incubated at 37° C. and the cells were lysed by ultrasound to extract ATP. After that, the supernatant was collected by high-speed centrifugation and ATP detection was performed, which involved adding the detection solution and compound to a 96-well plate and using a reader to measure the light intensity. Finally, data analysis and statistics were performed to evaluate the effects of the compound by comparing the ATP levels of different treatment groups.

MRSA (ATCC 33591) [3] = test: Bacterial extracellular conductivity; format: cell-based, S. aureus; settings: 1×MIC and 2×MIC, vs blank control
From the text: Changes in conductivity can reflect the permeability and integrity of the cell membrane. When the cell membrane is damaged or the permeability increases, the flow of ions inside and outside the cell will increase, resulting in an increase in conductivity. In the fields of biology and cell biology, conductivity measurements are often used to assess changes in cell membrane integrity.
MRSA and E. coli cells in the logarithmic growth phase were first resuspended after high-speed centrifugation and repeated PBS buffer washing and adjusted to the appropriate optical density. Next, different concentrations of compound i (1×MIC and 2×MIC) were added to the cell suspension, and a blank control group was set. All samples were incubated at 37° C. and sampled at set time points (0, 1, 2, 4, 6, and 8 hours). […] This series of operations helps to reveal the specific mechanism of action of compound i on bacterial growth and cell structure.

E. coli (ATCC 25922) [4] = test: Biofilm formation, crystal violet staining; format: cell-based
Method: Quantification of biofilm using crystal violet staining:
MRSA and E. coli cells were first adjusted to the logarithmic growth phase and diluted to […]. […] A blank control group without compound addition was set up. After incubation, the suspension was discarded and washed three times with 10 mM PBS buffer, and the biofilm was fixed with methanol for 15 minutes. After removing the methanol, 200 μL of 0.1% crystal violet was added to each well for staining for 30 minutes, and then the crystal violet was discarded and washed again with PBS three times. After the well plate was dried, 200 μL of 95% ethanol was added to each well to dissolve the fixed dye. […] This process allows for quantitative analysis of the ability of different concentrations of compound i to form biofilms.

MRSA (ATCC 33591) [5] = test: Cell membrane integrity, propidium iodide staining; format: cell-based, S. aureus
Method: (§1) The steps for dead cell staining using propidium iodide are as follows:
(§2) At the beginning of the experiment, samples were taken from MRSA and E. coli in the logarithmic growth phase, centrifuged at 8000 rpm for 5 minutes and washed twice with 0.85% NaCl solution to remove the culture medium and other possible interfering substances. Afterwards, the bacteria were resuspended in 0.85% NaCl solution and the concentration was adjusted to approximately 1×10^8 CFU/mL.
(§3) […] After incubation, in order to mark and distinguish dead cells, 15 μM propidium iodide solution was added to each sample and incubated in the dark for 15 minutes. PI is a fluorescent dye that binds to DNA and can only penetrate into dead cells with damaged cell membranes.
(§4) Finally, the samples were observed using a fluorescence microscope or a confocal laser scanning microscope. By setting the appropriate fluorescence channel (excitation wavelength 535 nm, emission wavelength 617 nm), the red fluorescence emitted by dead cells can be detected. In this way, the effect of compound i on the lethality of bacterial cells can be intuitively evaluated and recorded, providing an experimental basis for further drug research.

E. coli (ATCC 25922) [6] = test: Cell membrane integrity, propidium iodide staining; format: cell-based
Method: as §1, §2, §3, §4

MRSA (ATCC 33591) [7] = test: Cell membrane potential, DiBAC4 (3) probe; settings: 1×MIC to 8×MIC, vs blank control

Row | SMILES | MIC [1] | extracellular fluorescence intensity (ATP) increased by (MRSA (ATCC 33591) [2]; 1×MIC) | intracellular fluorescence intensity (ATP) decreased by (MRSA (ATCC 33591) [2]; 1×MIC) | extracellular fluorescence intensity (ATP) increased by (MRSA (ATCC 33591) [2]; 2×MIC) | intracellular fluorescence intensity (ATP) decreased by (MRSA (ATCC 33591) [2]; 2×MIC) | extracellular conductivity (MRSA (ATCC 33591) [3]) | inhibition rate of biofilm formation (E. coli (ATCC 25922) [4]; 1×MIC) | inhibition rate of biofilm formation (E. coli (ATCC 25922) [4]; 8×MIC) | cell membrane integrity, propidium iodide red fluorescence (MRSA (ATCC 33591) [5]; 1×MIC) | cell membrane integrity, propidium iodide red fluorescence (MRSA (ATCC 33591) [5]; 2×MIC) | cell membrane integrity, propidium iodide red fluorescence (E. coli (ATCC 25922) [6]; 1×MIC) | cell membrane integrity, propidium iodide red fluorescence (E. coli (ATCC 25922) [6]; 2×MIC) | membrane potential, DiBAC4 (3) fluorescence intensity (MRSA (ATCC 33591) [7])
1 | C=C[C@]1(C)C[C@@H](OC(=O)CS[C@@H]2C[C@H]3CC[C@@H](C2)N3C)[C@]2(C)[C@H](C)CC[C@]3(CCC(=O)[C@H]32)[C@@H](C)[C@@H]1O [Retapamulin, reference compound] | 0.03 µg/mL (≈ 0.0579 µM) |  |  |  |  |  |  |  |  |  |  |  | 
2 | C=C[C@]1(C)C[C@@H](OC(=O)CSc2nc3cc[n+](Cc4ccc(C)cc4)cc3[nH]2)[C@]2(C)[C@H](C)CC[C@]3(CCC(=O)[C@H]32)[C@@H](C)[C@@H]1O [Compound i, 5-(4-methylbenzyl)-2-((2-(((3aR,4R,5R,7S,8S,9R,9aS,12R)-8-hydroxy-4,7,9,12-tetramethyl-3-oxo-7-vinyldecahydro-4,9a-propancyclopenta[8]cyclo-5-yl)oxy)-2-oxoethyl)thio)-3H-imidazo[4,5-C]pyridine-5-ium] |  | 3.27 times | 51.92% | 2.28 times | 74.76% | increased | 60.47% | 94.54% | obvious red fluorescence was observed | red fluorescence was significantly enhanced | obvious red fluorescence was observed | red fluorescence was significantly enhanced | significant dose-dependent increase
